Measurements published in patent publication US11434237B2, “Selective ligands for tau aggregates” (KARIN & STEN MORTSTEDT CBD SOLUTIONS AB, priority 2017, dated 2022).

Key:
Aβ aggregates = target: T1, Aβ aggregates (Homo sapiens, UniProt P05067); assay: Compound and antibody 4G8 double staining of AD brain tissue sections; type: binding; settings: for Overlap between Fluorescence from tested compound and fluorescence from 4G8 observed / Fluorescence from tested compound observed: 100 nM compound, human AD brain tissue sections; for Overlap between Fluorescence from tested compound and fluorescence from 4G8 observed: Aβ antibody 4G8; for Fluorescence from tested compound observed: double staining with Aβ antibody 4G8; for Fluorescence from 4G8 observed: signal of Aβ antibody 4G8 in the section stained with 100 nM of the compound
T1 construct: compound and antibody double staining of Aβ or tau aggregates; from tissue; host or cells: human AD brain tissue sections (20 μm)
T1 sequence (P05067 672-713 limits assumed): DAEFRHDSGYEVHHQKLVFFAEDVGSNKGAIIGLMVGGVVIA
Procedure: (§1) To achieve compound and antibody double staining of Aβ or tau aggregates, tissue sections (20 μm) from human AD brain were fixed in 70% EtOH at 4° C. for 3 min, rehydrated in distilled water and then incubated in PBS for 30 min. Sections were blocked and permeabilized in PBS with 5% normal goat serum and 0.1% triton X-100 (blocking buffer) for 1 h at room temperature (RT). Antibody 4G8 (Biolegend, San Diego, Calif., USA) reactive to Aβ, and AT100 (Thermo Fisher Scientific, Waltham, Mass., USA) directed against tau phosphorylated at […] (3) were diluted 1:500 and 1:1000, respectively, in blocking buffer and added to the sections. After 16 h incubation at 4° C. unbound antibody was removed by washing in PBS with 0.1% triton X-100 (PBS-T) 3×10 min. To visualize antibody binding to Aβ or tau aggregates sections were incubated with goat anti-mouse secondary antibody labelled with Alexa 647 (Thermo Fisher Scientific). The antibody was diluted 1:200 in blocking buffer and after 1 h incubation at RT sections were washed in PBS 3×10 min. Example Compound 3a, Example Compound 3b, Example Compound 3c, Example Compound 3d, Example Compound 3e, Example Compound 3f, Example Compound 3g, Example Compound 3h, Example Compound 3i, Example Compound 3j, Example Compound 3k, Example Compound 3m, Example Compound 3n, Example Compound 3o, Example Compound 3p, Example Compound 3q, Example Compound 3r, Example Compound 3s, Example Compound 3t, Example Compound 3u, Example Compound 8a, Comparative Example 1, Comparative Example 2, Comparative Example 3 and Comparative Example 4 were dissolved in DMSO to a concentration of 1.5 mM and then further diluted in PBS to a final concentration of 100 nM compound prior to staining. The tissue sections were then stained for 30 min at RT with these freshly prepared solutions containing 100 nM of the respective compound in PBS. After three washes in PBS the sections were mounted in Dako mounting medium for fluorescence (Dako Cytomation, Glostrup, Denmark) and allowed to dry overnight before analysis. Fluorescence images were collected using an inverted LSM 780 confocal microscope (Carl Zeiss, Oberkochen, Germany) with the following excitation/emission wavelengths optimized for each compound: 458/484-600 (Comparative Example 1, Comparative Example 3), 561/569-648 (Example Compound 3a, Example Compound 3b, Example Compound 3c, Example Compound 3d, Example Compound 3e, Example Compound 3f, Example Compound 3g, Example Compound 3h, Example Compound 3i, Example Compound 3j, Example Compound 3k, Example Compound 3m, Example Compound 3n, Example Compound 3o, Example Compound 3p, Example Compound 3q, Example Compound 3r, Example Compound 3s, Example Compound 3t, Example Compound 3u, Example Compound 8a, Comparative Example 2 and Comparative Example 4) and 633/638-755 (Alexa 647). To visualize autofluorescent lipofuscin excitation/emission wavelengths 405/410-480 or 405/410-514 were used.

tau aggregates [1] = target: T2, tau aggregates (Homo sapiens, UniProt P10636); assay: Compound and antibody AT100 double staining of AD brain tissue sections; type: binding; settings: for Labelling of immune-positive NFTs and dystrophic neurites / Fluorescence from tested compound observed / Overlap between Fluorescence from tested compound and fluorescence from AT-100 observed: 100 nM compound; for Labelling of immune-positive NFTs and dystrophic neurites: AT100 co-staining, AD brain sections; for Fluorescence from tested compound observed / Overlap between Fluorescence from tested compound and fluorescence from AT-100 observed: human AD brain tissue sections; for Fluorescence from tested compound observed: double staining with tau antibody AT-100; for Overlap between Fluorescence from tested compound and fluorescence from AT-100 observed: tau antibody AT-100; for Fluorescence from AT-100 observed: signal of tau antibody AT-100 in the section stained with 100 nM of the compound
T2 construct: tissue sections (20 μm) from human AD brain; from tissue; host or cells: human AD brain tissue sections (20 μm)
T2 sequence (P10636 1-441 isoform P10636-8): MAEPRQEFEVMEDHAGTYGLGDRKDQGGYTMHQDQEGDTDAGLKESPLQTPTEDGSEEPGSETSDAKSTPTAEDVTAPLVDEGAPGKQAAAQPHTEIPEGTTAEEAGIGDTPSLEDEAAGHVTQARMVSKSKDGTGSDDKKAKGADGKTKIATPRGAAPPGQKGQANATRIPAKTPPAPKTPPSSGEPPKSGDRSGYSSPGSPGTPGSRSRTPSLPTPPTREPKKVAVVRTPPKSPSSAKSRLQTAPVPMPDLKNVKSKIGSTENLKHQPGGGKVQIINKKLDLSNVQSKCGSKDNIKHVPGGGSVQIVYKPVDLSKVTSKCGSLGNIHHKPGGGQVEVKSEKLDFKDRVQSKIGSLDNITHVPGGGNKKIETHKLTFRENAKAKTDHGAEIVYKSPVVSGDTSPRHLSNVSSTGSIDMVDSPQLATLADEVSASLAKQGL
Procedure: as §1

Aβ and tau deposits = assay: Co-staining of AD brain sections with q-FTAA-CN and Example Compound 3a; type: binding, human; settings: simultaneous staining, 100 nM q-FTAA-CN and 100 nM Example Compound 3a
Procedure: Frozen brain sections (20 μm) were fixed in 96% EtOH, rehydrated in 50% EtOH and de-ionized water and then incubated in phosphate buffered saline (PBS, 10 mM phosphate, 140 mM NaCl, 2.7 mM KCl, pH 7.4) for 10 min. Solutions containing 100 nM PBB3 and 100 nM Example Compound 3b or 100 nM q-FTAA-CN and 100 nM Example Compound 3a in PBS were added to the sections. After 30 min, the sections were washed with PBS and mounted with Dako fluorescent mounting medium (Dako Cytomation, Glostrup, Denmark). The mounting medium was allowed to solidify over night before collecting emission spectra of the compounds bound to misfolded A ? and tau using an inverted LSM 780 confocal microscope (Carl Zeiss, Oberkochen, Germany) with excitation wavelengths at 405 nm (PBB3 and q-FTAA-CN) and 561 nm (Example Compound 3a and Example Compound 3b).

tau aggregates [2] = target: T2, tau aggregates; assay: Example Compound 3b staining of AD brain sections pre-incubated with q-FTAA-CN; type: binding; settings: FIG. 7H, pre-incubated with 1 μM q-FTAA-CN, then 10 nM Example Compound 3b
Procedure: Frozen brain sections (20 μm) were fixed in 96% EtOH, rehydrated in 50% EtOH and de-ionized water and then incubated in phosphate buffered saline (PBS, 10 mM phosphate, 140 mM NaCl, 2.7 mM KCl, pH 7.4) for 10 min. The sections were stained with solutions containing 1 ? M PBB3 or 1 ? M q-FTAA-CN in PBS for 30 min and after rinsing three times with PBS, the sections was stained with a solution containing 10 nM Example Compound 3b. After 30 min, the sections were washed with PBS and mounted with Dako fluorescent mounting medium (Dako Cytomation, Glostrup, Denmark). The mounting medium was allowed to solidify over night before collecting emission spectra of the compounds bound to misfolded Aβ and tau using an inverted LSM 780 confocal microscope (Carl Zeiss, Oberkochen, Germany) with excitation wavelengths at 405 nm (PBB3 and q-FTAA-CN) and 561 nm (Example Compound 3b).

Compound	Overlap between Fluorescence from tested compound and fluorescence from 4G8 observed (Aβ aggregates)	Fluorescence from tested compound observed (Aβ aggregates)	Fluorescence from 4G8 observed (Aβ aggregates)	Labelling of immune-positive NFTs and dystrophic neurites (tau aggregates [1])	Fluorescence from tested compound observed (tau aggregates [1])	Overlap between Fluorescence from tested compound and fluorescence from AT-100 observed (tau aggregates [1])	Fluorescence from AT-100 observed (tau aggregates [1])	Deposits labelled (Aβ and tau deposits)	Fluorescence from Example 3a observed (Aβ and tau deposits; FIG. 7A-C)	Overlap between Fluorescence from Example 3a and fluorescence from q-FTAA-CN (Aβ and tau deposits; FIG. 7A-C)	Fluorescence from q-FTAA-CN observed (tau aggregates [2])	Fluorescence from q-FTAA-CN observed (tau aggregates [2]; listed as q-FTAA)	Fluorescence from q-FTAA-CN observed (Aβ and tau deposits; FIG. 7A-C)
CC[n+]1c(/C=C/c2ccc(-c3ccc(C(=O)OC)s3)s2)sc2ccccc21 [Example Compound 3a]	no correlation and no	yes	yes	labelled both immune-positive NFTs and dystrophic neurites	yes	yes	yes	tau aggregates (arrows) displayed Example Compound 3a fluorescence	yes	no	–	–	–
N#Cc1cc(CC(=O)O)c(-c2ccc(-c3sc(-c4ccc(C(=O)O)s4)cc3CC(=O)O)s2)s1 [q-FTAA-CN, reference compound]	–	–	–	–	–	–	–	selectively labelled Aβ deposits	–	–	observed from both Aβ deposits (small arrow-heads) and tau aggregates and yes	labelled both Aβ deposits and NFTs	yes
CC[n+]1c(/C=C/c2ccc(-c3ccc(C(=O)OC)[se]3)s2)[se]c2ccc(OC)cc21.[I-] [Example Compound 3p]	no correlation and no	yes	yes	labelled both immune-positive NFTs and dystrophic neurites	yes	yes	yes	–	–	–	–	–	–
CC[n+]1c(/C=C/c2ccc(-c3ccc(C(=O)OC)s3)s2)sc2cc(OC)ccc21.[I-] [Example Compound 3e]	no correlation and no	yes	yes	labelled both immune-positive NFTs and dystrophic neurites	yes	yes	yes	–	–	–	–	–	–
